Results published in patent US8507559B2, “Cyclohexenyl modulators of chemokine receptor activity” (Bristol-Myers Squibb Company, priority 2008, dated 2013).

Molecular target: T1, CCR2 (Homo sapiens, UniProt P41597)
T1 construct: THP-1 human monocytic leukemic cell line, which expresses endogenous CCR2; endogenous in cells; host or cells: human peripheral blood mononuclear cells, human monocytes or THP-1 cells
T1 sequence (P41597 1-360 isoform P41597-2): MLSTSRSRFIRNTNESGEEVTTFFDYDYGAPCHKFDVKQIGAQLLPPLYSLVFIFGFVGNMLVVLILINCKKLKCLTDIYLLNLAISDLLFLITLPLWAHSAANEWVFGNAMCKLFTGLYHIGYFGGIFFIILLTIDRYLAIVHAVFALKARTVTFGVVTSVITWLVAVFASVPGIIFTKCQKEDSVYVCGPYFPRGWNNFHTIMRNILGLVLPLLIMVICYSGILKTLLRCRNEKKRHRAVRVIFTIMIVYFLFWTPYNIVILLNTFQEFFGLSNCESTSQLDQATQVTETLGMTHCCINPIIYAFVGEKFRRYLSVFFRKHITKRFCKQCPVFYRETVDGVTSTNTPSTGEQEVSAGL
Assay: CCR2 binding: antagonism of 125I-MCP-1 binding (human PBMC / THP-1 whole cell)
Details: n = 1 unless otherwise noted
Protocol: Antagonism of MCP-1 Binding to Human PBMC
Millipore filter plates (#MABVN1250) are treated with 100 μl of binding buffer (0.5% bovine serum albumin, 20 mM HEPES buffer and 5 mM magnesium chloride in RPMI 1640 media) for thirty minutes at room temperature. To measure binding, 50 μl of binding buffer, with or without a known concentration compound, is combined with 50 μl of ^125-I labeled human MCP-1 (to give a final concentration of 150 pM radioligand) and 50 μl of binding buffer containing 5×10^5 cells. Cells used for such binding assays can include human peripheral blood mononuclear cells isolated by Ficoll-Hypaque gradient centrifugation, human monocytes (Weiner et al., J. Immunol. Methods. 1980, 36, 89), or the THP-1 cell line which expresses the endogenous receptor. The mixture of compound, cells and radioligand are incubated at room temperature for thirty minutes. Plates are placed onto a vacuum manifold, vacuum applied, and the plates washed three times with binding buffer containing 0.5M NaCl. The plastic skirt is removed from the plate, the plate allowed to air dry, the wells punched out and counted. The percent inhibition of binding is calculated using the total counts obtained in the absence of any competing compound and the background binding determined by addition of 100 nM MCP-1 in place of the test compound.
THP-1 Monocytic Cell Binding: Whole Cell-based Assay
The human CCR2 binding assay was also established with the THP-1 human monocytic leukemic cell line, which expresses endogenous CCR2, using ^125I-human MCP-1 as the tracer ligand. Radioligand competition binding assays were used for assessment of binding affinity of test compounds to the CCR2 receptor. For radioligand competition studies, 100 μl containing 2.5×10^5 THP-1 cells/well (in assay buffer containing 50 mM HEPES, pH7.4, 5 mM MgCl2, 1 mM CaCl2 and 0.5% BSA) were added to 96-well assay plates containing the test compounds in 3-fold serial dilution, with final concentrations ranging from 5 μM to 100 pM. Subsequently, 50 μl ^125I-MCP-1 radioligand at a final concentration of 0.2 nM in assay buffer were added to the reaction. After a 90 minute incubation period at room temperature, the binding reaction was terminated by harvesting on GF/B filter plates (PerkinElmer Cat. No. 6005177) followed by washing with ice-cold wash buffer (50 mM HEPES, pH 7.4, 0.1% BSA, 0.5 M NaCl) to remove unbound ligand. After washing, the plate was dried for 45 minutes at 60° C. followed by addition of 40 μl MicroScint 20 scintillation fluid, sealed and analyzed by the Packard TopCount reader. Non-specific binding was determined in the presence of 10 μM (a molar excess of 5000 fold) of an in-house CCR2 small molecule antagonist (CCR2 IC50=2 nM). Specific binding of ^125I-MCP-1 was calculated as the difference between total and non-specific binding. The competition data was plotted as a percentage inhibition of radioligand specific bound in the absence of test compound (percent of total signal). After correcting for non-specific binding, IC50 values were determined. The IC50 is defined as the concentration of test compound required to reduce ^125I-MCP-1 specific binding by 50% and was calculated using the four parameter logistic equation to fit the normalized data.

Ki | Compound
930 nM | Cc1cccc([C@@]2(C)C[C@H](C)CC=C2C(=O)O)c1 (racemic) [Example 1-18, (4RS,6RS)-4,6-dimethyl-6-m-tolylcyclohex-1-enecarboxylic acid]
1000 nM | C[C@@H]1CC=C(C(=O)O)[C@@](C)(c2ccccc2)C1 (racemic) [Example 1-24, (4RS,6RS)-4,6-dimethyl-6-phenylcyclohex-1-enecarboxylic acid]
320 nM | C[C@@H]1CC=C(C(=O)O)[C@@](C)(c2ccc3ccccc3c2)C1 (racemic) [Example 1-20, (4RS,6RS)-4,6-dimethyl-6-(naphthalen-2-yl)cyclohex-1-enecarboxylic acid]
280 nM | C[C@@H]1CC=C(C(=O)O)[C@@](C)(c2cccc(C(F)(F)F)c2)C1 (racemic) [Example 1-12, (4RS,6RS)-4,6-dimethyl-6-(3-(trifluoromethyl)phenyl)cyclohex-1-enecarboxylic acid]
69 nM | Cc1ccc([C@@]2(C)C[C@H](C)CC=C2C(=O)O)cc1Cl (racemic) [Example 1-04, (4RS,6RS)-6-(3-chloro-4-methylphenyl)-4,6-dimethylcyclohex-1-enecarboxylic acid]
3700 nM | Cc1cccc([C@@]2(C)C[C@H](C)CC=C2C(=O)O)c1C (racemic) [Example 1-19, (4RS,6RS)-6-(2,3-dimethylphenyl)-4,6-dimethylcyclohex-1-enecarboxylic acid]
110 nM | C[C@@H]1CC=C(C(=O)O)[C@@](C)(c2cc(Cl)cc(Cl)c2)C1 (racemic) [Example 1-30, (4RS,6RS)-6-(3,5-dichlorophenyl)-4,6-dimethylcyclohex-1-enecarboxylic acid]
11 nM | C[C@@H]1CC=C(C(=O)O)[C@@](C)(c2ccc(Cl)c(C(F)(F)F)c2)C1 (racemic) [Example 1-13, (4RS,6RS)-6-(4-chloro-3-(trifluoromethyl)-phenyl)-4,6-dimethylcyclohex-1-enecarboxylic acid]
300 nM | Cc1cc(C)cc([C@@]2(C)C[C@H](C)CC=C2C(=O)O)c1 (racemic) [Example 1-29, (4RS,6RS)-6-(3,5-dimethylphenyl)-4,6-dimethylcyclohex-1-enecarboxylic acid]
3900 nM | C[C@]1(c2ccc(Cl)c(Cl)c2)C[C@H](c2ccccc2)CC=C1C(=O)O (racemic) [Example 1-06, (4RS,6RS)-6-(3,4-dichlorophenyl)-6-methyl-4-phenylcyclohex-1-enecarboxylic acid]
440 nM | CC1(c2ccc(Cl)c(Cl)c2)CCCC=C1C(=O)O (racemic) [Example 1-01, 6-(3,4-dichlorophenyl)-6-methylcyclohex-1-enecarboxylic acid]

Further lines, the compound ahead of its results:

Compound | Ki
C[C@H]1CCC(C(=O)O)[C@](C)(c2cccc(C(F)(F)F)c2)C1 (mixture of isomers) [Example 2, (2RS,4SR)-2,4-dimethyl-2-(3-(trifluoromethyl)phenyl)cyclohexanecarboxylic acid] | 5800 nM
CC1=C(C(=O)O)[C@@](O)(c2ccc(Cl)c(Cl)c2)C[C@H](C)C1 (racemic) [Example 5, (4RS,6SR)-6-(3,4-dichlorophenyl)-6-hydroxy-2,4,-dimethylcyclohex-1-enecarboxylic acid] | 1000 nM
(4RS,6RS)-6-(4-chloro-3-(trifluoromethyl)-phenyl)-4-(hydroxymethyl)-6-methylcyclohex-1-enecarboxylic acid [Example 9] | 310 nM
CC(=O)NC[C@@H]1CC=C(C(=O)O)[C@@](C)(c2ccc(Cl)c(C(F)(F)F)c2)C1 (racemic) [Example 11, (4RS,6RS)-4-(acetamidomethyl)-6-(4-chloro-3-(trifluoromethyl)phenyl)-6-methylcyclohex-1-enecarboxylic acid] | 5500 nM
C[C@@H]1CC=C(C(=O)O)[C@@](C)(c2ccc(Cl)c(Cl)c2)C1 [Example 4-02b, (4R,6R)-6-(3,4-dichlorophenyl)-4,6-dimethylcyclohex-1-enecarboxylic acid] | 5800 nM
